# Values joined by “and” are separate entries in the source; they are usually repeats but may differ in a detail not shown here. Equal entries are not always repeated. Where two headings read alike, the source gives them in different places.
# Tests used:
# [1] = Determination of compound in plasma and brain by LC-MS/MS; assay type: in vivo; conditions: TMHT mice of experiment 5.5, 30 mg/kg orally for 8 weeks; for concentration in cortex: cortex at sacrifice; for concentration in plasma: plasma at sacrifice; for concentration in rest of brain: rest of brain at sacrifice; for concentration at 8 weeks: TMHT, mouse, oral, 30 mg/kg
# Procedure: Plasma and brain samples derived from the experiments in 5.5 were pooled from single time point and were analysed for the presence and concentration of Comparative Compound 324 and Compound A by LC-MS/MS after protein precipitation over the calibration range of 0.5-10,000 ng/mL. Chrysin (Sigma®), control mouse plasma and brain (obtained from a commercial supplier) were used as internal standards.
# All instrument control, data collection, peak area integration and storage were performed using Thermo Finnigan TSQ Quantum Ultra Mass Spectrometer in conjunction with LCQuan software (v.2.5.6). The mass spectrometer response (peak area ratio of analyte to internal standard) of each calibration standard was calculated by Watson LIMS (v. 7.2) and plotted against the nominal concentration. A weighted least square quadratic regression analysis was used to calculate an equation of the calibration line using one of the standard fits in Watson LIMS. Concentration of Comparative Compound 324 and Compound A in the plasma and brain samples were back calculated from the calibration lines to 3 significant figures. All results reported are from samples that passed the following criteria:
# [formula] • At least 7 calibration standards within ±20% RE of their target concentrations. • At least 66% of QC samples within ±20% RE of their respective target values. Within at least one acceptable at each level when n=3 and two when n=6.
# The analytical method was as summarised below in Table 14:
# In total 32 samples were analysed. Quality control (QC) samples at concentration of 10, 100 and 1000 ng/mL were freshly prepared on the day of the analysis.
# ALK (L1196M) = ALK (L1196M) (Homo sapiens, UniProt Q9UM73, L1196M); assay: KINOMEscan binding assay; conditions: read-out: % Ctrl @ 10000 nM
# AURKB = AURKB (Homo sapiens, UniProt Q96GD4); assay: KINOMEscan binding assay; conditions: read-out: % Ctrl @ 10000 nM
# BIKE = BIKE (Homo sapiens, UniProt Q9NSY1); assay: KINOMEscan binding assay; conditions: read-out: % Ctrl @ 10000 nM
# CLK2 = CLK2 (Homo sapiens, UniProt P49760); assay: KINOMEscan binding assay; conditions: read-out: % Ctrl @ 10000 nM
# CSNK1G2 = CSNK1G2 (Homo sapiens, UniProt P78368); assay: KINOMEscan binding assay; conditions: read-out: % Ctrl @ 10000 nM
# CSNK1G3 = CSNK1G3 (Homo sapiens, UniProt Q9Y6M4); assay: KINOMEscan binding assay; conditions: read-out: % Ctrl @ 10000 nM
# CSNK2A2 = CSNK2A2 (Homo sapiens, UniProt P19784); assay: KINOMEscan binding assay; conditions: read-out: % Ctrl @ 10000 nM
# DAPK2 = DAPK2 (Homo sapiens, UniProt Q9UIK4); assay: KINOMEscan binding assay; conditions: read-out: % Ctrl @ 10000 nM
# [2] = molecular target: EGFR (L747-S752del, P753S) (Homo sapiens, UniProt P00533, DEL747-752/P753S); assay: KINOMEscan binding assay; conditions: read-out: % Ctrl @ 10000 nM
# EPHA4 = EPHA4 (Homo sapiens, UniProt P54764); assay: KINOMEscan binding assay; conditions: read-out: % Ctrl @ 10000 nM
# FGFR1 = FGFR1 (Homo sapiens, UniProt P11362); assay: KINOMEscan binding assay; conditions: read-out: % Ctrl @ 10000 nM
# FLT3 = FLT3 (Homo sapiens, UniProt P36888); assay: KINOMEscan binding assay; conditions: read-out: % Ctrl @ 10000 nM
# MAK = MAK (Homo sapiens, UniProt P20794); assay: KINOMEscan binding assay; conditions: read-out: % Ctrl @ 10000 nM
# MAP4K2 = molecular target: T1, MAP4K2 (Homo sapiens, UniProt Q12851); assay: KINOMEscan binding assay; conditions: read-out: % Ctrl @ 10000 nM
# T1 construct: T7 phage fusion (most assays) or DNA label after HEK293 expression; purchased DiscoveRx (KINOMEscan, LeadHunter Discovery services); host or cells: T7 phage in E. coli (BL21-derived) or HEK293
# MAPKAPK5 = molecular target: T2, MAPKAPK5 (Homo sapiens, UniProt Q8IW41); assay: KINOMEscan binding assay; conditions: read-out: % Ctrl @ 10000 nM
# T2 construct: T7 phage fusion (most assays) or DNA label after HEK293 expression; purchased DiscoveRx (KINOMEscan, LeadHunter Discovery services); host or cells: T7 phage in E. coli (BL21-derived) or HEK293
# MKNK2 = MKNK2 (Homo sapiens, UniProt Q9HBH9); assay: KINOMEscan binding assay; conditions: read-out: % Ctrl @ 10000 nM
# NEK11 = NEK11 (Homo sapiens, UniProt Q8NG66); assay: KINOMEscan binding assay; conditions: read-out: % Ctrl @ 10000 nM
# NEK2 = NEK2 (Homo sapiens, UniProt P51955); assay: KINOMEscan binding assay; conditions: read-out: % Ctrl @ 10000 nM
# NEK6 = NEK6 (Homo sapiens, UniProt Q9HC98); assay: KINOMEscan binding assay; conditions: read-out: % Ctrl @ 10000 nM
# PIP5K1C = PIP5K1C (Homo sapiens, UniProt O60331); assay: KINOMEscan binding assay; conditions: read-out: % Ctrl @ 10000 nM
# PKNB M. tuberculosis = PKNB M. tuberculosis (Mycobacterium tuberculosis, UniProt P9WI81); assay: biochemical; assay type: binding; conditions: read-out: % Ctrl @ 10000 nM
# PLK4 = PLK4 (Homo sapiens, UniProt O00444); assay: KINOMEscan binding assay; conditions: read-out: % Ctrl @ 10000 nM
# PRKD2 = PRKD2 (Homo sapiens, UniProt Q9BZL6); assay: KINOMEscan binding assay; conditions: read-out: % Ctrl @ 10000 nM
# PRKG2 = PRKG2 (Homo sapiens, UniProt Q13237); assay: KINOMEscan binding assay; conditions: read-out: % Ctrl @ 10000 nM
# [3] = molecular target: RSK3 Kin.Dom.2-C-terminal (Homo sapiens, UniProt Q15349); assay: KINOMEscan binding assay; conditions: read-out: % Ctrl @ 10000 nM
# SIK = SIK (Homo sapiens, UniProt P57059); assay: KINOMEscan binding assay; conditions: read-out: % Ctrl @ 10000 nM
# TLK1 = TLK1 (Homo sapiens, UniProt Q9UKI8); assay: KINOMEscan binding assay; conditions: read-out: % Ctrl @ 10000 nM
# VEGFR2 = molecular target: T3, VEGFR2 (Homo sapiens, UniProt P35968); assay: KINOMEscan binding assay; conditions: read-out: % Ctrl @ 10000 nM
# T3 construct: purchased DiscoveRx (KINOMEscan, LeadHunter Discovery services)
# WNK3 = molecular target: T4, WNK3 (Homo sapiens, UniProt Q9BYP7); assay: KINOMEscan binding assay; conditions: read-out: % Ctrl @ 10000 nM
# T4 construct: purchased DiscoveRx (KINOMEscan, LeadHunter Discovery services)
# YANK3 = molecular target: T5, YANK3 (Homo sapiens, UniProt Q86UX6); assay: KINOMEscan binding assay; conditions: read-out: % Ctrl @ 10000 nM
# T5 construct: purchased DiscoveRx (KINOMEscan, LeadHunter Discovery services)
# ZAP70 = molecular target: T6, ZAP70 (Homo sapiens, UniProt P43403); assay: KINOMEscan binding assay; conditions: read-out: % Ctrl @ 10000 nM
# T6 construct: purchased DiscoveRx (KINOMEscan, LeadHunter Discovery services)
# [4] = hippocampus at sacrifice, LC-MS/MS, one value per mouse
# T5 sequence (Q86UX6 whole entry): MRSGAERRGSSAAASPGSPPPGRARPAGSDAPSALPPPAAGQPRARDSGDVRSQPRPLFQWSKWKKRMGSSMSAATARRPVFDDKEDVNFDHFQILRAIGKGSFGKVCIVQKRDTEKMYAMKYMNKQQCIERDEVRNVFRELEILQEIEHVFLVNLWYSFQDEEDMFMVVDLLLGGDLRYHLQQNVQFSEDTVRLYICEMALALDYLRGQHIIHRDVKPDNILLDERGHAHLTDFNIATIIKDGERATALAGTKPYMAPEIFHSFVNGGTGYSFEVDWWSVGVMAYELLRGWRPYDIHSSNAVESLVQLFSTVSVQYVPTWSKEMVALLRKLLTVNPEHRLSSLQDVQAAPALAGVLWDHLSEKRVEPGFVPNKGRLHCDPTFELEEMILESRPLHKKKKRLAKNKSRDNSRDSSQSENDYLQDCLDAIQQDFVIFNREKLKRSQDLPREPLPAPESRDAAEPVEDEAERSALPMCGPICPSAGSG
# T6 sequence (P43403 whole entry): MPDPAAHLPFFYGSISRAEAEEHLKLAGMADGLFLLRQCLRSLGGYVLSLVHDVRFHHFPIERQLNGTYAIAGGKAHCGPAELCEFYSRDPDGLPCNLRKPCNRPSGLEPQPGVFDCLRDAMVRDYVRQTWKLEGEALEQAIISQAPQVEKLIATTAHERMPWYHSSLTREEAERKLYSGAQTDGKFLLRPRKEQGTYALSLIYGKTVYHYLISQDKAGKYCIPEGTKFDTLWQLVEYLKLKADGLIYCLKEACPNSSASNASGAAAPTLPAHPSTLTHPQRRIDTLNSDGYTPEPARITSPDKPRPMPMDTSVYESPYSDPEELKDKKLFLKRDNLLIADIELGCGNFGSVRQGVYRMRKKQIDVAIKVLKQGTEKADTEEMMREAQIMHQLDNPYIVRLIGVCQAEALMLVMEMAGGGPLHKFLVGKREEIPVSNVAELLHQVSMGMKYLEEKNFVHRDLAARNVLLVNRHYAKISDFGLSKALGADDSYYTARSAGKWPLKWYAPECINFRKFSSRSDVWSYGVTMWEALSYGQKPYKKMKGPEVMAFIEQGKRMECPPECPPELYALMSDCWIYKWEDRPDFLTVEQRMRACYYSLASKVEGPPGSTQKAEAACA
# T4 sequence (Q9BYP7 whole entry): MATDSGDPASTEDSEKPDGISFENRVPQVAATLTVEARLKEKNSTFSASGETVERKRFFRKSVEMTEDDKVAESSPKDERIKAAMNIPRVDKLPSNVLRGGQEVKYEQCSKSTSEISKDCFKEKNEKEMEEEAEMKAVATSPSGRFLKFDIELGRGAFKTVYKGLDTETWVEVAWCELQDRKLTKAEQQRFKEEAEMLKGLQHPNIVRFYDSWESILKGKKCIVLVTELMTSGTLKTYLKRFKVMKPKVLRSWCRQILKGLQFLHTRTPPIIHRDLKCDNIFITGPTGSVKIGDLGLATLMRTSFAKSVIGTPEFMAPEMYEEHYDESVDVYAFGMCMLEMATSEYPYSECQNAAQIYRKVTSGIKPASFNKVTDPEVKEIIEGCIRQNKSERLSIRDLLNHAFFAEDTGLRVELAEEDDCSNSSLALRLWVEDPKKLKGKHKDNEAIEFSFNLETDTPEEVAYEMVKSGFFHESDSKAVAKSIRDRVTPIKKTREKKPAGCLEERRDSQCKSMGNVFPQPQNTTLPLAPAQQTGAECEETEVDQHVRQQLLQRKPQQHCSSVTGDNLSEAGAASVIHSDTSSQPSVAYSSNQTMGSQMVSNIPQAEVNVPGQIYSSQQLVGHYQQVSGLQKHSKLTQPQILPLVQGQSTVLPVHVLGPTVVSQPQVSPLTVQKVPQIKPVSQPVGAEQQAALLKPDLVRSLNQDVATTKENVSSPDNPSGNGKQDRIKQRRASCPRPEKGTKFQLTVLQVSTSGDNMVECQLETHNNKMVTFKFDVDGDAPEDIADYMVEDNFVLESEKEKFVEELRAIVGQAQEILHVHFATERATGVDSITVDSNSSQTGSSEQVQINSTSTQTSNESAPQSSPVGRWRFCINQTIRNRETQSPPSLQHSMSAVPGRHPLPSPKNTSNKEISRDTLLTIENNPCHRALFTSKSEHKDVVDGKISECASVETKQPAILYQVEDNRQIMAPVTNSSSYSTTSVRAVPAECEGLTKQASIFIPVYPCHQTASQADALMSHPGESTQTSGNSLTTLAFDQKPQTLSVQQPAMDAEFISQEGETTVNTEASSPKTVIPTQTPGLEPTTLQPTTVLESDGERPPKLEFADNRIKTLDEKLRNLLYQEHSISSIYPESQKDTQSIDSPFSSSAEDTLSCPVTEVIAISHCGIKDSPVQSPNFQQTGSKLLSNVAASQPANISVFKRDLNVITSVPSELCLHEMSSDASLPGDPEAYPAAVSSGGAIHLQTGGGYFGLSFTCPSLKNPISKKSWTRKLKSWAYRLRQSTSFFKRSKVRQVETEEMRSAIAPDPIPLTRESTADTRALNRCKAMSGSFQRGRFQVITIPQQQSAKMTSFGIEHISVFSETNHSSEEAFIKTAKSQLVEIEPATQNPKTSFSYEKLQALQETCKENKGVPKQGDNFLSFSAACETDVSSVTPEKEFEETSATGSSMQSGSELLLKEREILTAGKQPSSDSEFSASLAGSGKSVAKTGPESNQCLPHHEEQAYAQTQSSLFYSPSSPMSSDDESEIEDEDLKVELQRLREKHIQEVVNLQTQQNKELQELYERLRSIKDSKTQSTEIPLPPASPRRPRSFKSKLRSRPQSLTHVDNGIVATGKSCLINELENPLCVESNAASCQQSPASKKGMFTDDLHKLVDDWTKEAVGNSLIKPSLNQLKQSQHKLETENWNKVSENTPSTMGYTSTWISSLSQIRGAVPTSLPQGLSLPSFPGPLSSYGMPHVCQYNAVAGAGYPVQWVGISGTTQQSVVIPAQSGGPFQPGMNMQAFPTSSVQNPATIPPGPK
# Chain of ALK (L1196M) (Q9UM73 19-1620 L1196M): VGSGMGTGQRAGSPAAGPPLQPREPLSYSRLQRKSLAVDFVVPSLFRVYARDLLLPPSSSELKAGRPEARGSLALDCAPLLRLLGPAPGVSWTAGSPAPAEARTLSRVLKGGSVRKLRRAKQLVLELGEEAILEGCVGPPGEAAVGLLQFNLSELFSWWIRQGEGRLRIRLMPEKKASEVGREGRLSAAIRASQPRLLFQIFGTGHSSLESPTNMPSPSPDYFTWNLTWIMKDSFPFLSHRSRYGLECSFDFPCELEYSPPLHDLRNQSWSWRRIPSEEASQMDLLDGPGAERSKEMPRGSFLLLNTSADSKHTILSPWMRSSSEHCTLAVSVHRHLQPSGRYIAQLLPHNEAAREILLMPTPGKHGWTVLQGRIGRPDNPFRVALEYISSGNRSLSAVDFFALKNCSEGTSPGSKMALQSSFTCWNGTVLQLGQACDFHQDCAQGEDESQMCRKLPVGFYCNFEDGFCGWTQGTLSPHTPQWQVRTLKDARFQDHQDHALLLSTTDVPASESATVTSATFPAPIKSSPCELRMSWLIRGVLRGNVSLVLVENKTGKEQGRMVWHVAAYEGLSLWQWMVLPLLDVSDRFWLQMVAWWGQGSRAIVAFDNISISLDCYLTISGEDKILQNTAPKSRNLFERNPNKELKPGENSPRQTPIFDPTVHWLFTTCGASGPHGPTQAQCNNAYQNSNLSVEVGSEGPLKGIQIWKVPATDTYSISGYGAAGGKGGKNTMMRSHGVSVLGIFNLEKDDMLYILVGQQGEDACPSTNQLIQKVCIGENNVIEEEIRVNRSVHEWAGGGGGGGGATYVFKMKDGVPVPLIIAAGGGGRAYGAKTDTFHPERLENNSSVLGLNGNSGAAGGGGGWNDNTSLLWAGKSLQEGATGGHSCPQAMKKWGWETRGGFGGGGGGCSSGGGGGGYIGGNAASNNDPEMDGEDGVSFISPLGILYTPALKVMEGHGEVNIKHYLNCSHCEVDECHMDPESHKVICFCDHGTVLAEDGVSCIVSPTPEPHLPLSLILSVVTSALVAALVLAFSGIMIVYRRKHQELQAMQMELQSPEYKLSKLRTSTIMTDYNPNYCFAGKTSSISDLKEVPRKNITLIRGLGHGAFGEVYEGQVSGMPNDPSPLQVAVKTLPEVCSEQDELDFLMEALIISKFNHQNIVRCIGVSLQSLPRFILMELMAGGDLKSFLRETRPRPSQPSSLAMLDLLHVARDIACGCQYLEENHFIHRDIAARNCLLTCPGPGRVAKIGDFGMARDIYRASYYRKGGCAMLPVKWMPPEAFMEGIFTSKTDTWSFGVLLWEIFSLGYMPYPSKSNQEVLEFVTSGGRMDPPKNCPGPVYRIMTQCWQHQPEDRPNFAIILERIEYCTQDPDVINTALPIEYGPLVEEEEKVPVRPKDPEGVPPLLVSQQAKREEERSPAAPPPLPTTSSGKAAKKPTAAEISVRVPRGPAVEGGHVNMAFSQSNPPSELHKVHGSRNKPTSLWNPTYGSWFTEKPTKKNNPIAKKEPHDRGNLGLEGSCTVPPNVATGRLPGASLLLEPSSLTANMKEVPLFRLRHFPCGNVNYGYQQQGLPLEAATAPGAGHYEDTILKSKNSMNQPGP
# Chain of MKNK2 (Q9HBH9 whole entry): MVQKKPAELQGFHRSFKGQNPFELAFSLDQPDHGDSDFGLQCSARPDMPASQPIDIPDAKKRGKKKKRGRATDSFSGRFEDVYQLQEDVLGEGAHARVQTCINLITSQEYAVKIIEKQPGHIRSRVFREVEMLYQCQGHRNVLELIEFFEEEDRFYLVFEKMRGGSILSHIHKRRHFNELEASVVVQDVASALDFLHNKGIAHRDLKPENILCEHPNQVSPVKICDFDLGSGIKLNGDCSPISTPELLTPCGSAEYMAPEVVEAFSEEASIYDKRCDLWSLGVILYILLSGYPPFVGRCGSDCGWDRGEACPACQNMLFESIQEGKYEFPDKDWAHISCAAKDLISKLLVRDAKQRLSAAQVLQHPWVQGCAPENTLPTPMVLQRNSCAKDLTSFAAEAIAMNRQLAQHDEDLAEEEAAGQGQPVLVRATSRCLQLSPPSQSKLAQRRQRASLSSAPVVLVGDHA
SMILES,"concentration in cortex ([1]; LC-MS/MS, one value per mouse)","concentration in hippocampus [1, 4]","concentration in plasma ([1]; LC-MS/MS, one value per mouse)","concentration in rest of brain ([1]; LC-MS/MS, one value per mouse)",remaining binding at 10 µM (ALK (L1196M)) [%],remaining binding at 10 µM (AURKB) [%],remaining binding at 10 µM (BIKE) [%],remaining binding at 10 µM (CLK2) [%],remaining binding at 10 µM (CSNK1G2) [%],remaining binding at 10 µM (CSNK1G3) [%],remaining binding at 10 µM (CSNK2A2) [%],remaining binding at 10 µM (DAPK2) [%],remaining binding at 10 µM [2] [%],remaining binding at 10 µM (EPHA4) [%],remaining binding at 10 µM (FGFR1) [%],remaining binding at 10 µM (FLT3) [%],remaining binding at 10 µM (MAK) [%],remaining binding at 10 µM (MAP4K2) [%],remaining binding at 10 µM (MAPKAPK5) [%],remaining binding at 10 µM (MKNK2) [%],also measured
"Nc1ncc(-c2nc3ccccc3o2)c(-c2ccncc2)n1 [Comparative Compound 324, 5-(1,3-benzoxazol-2-yl)-4-(pyridine-4-yl)pyrimidin-2-amine]",14.3 ng/mL and 108 ng/mL and 1.98 ng/mL and 10.5 ng/mL and 10.7 ng/mL and 0.536 ng/mL and 15.3 ng/mL and 6.41 ng/mL,11.9 ng/mL and 87.0 ng/mL and BLQ (2×) and 12.6 ng/mL and 11.5 ng/mL and 15.1 ng/mL and 6.12 ng/mL,295 ng/mL and 1450 ng/mL and 34.2 ng/mL and 230 ng/mL and 225 ng/mL and 10.5 ng/mL and 287 ng/mL and 138 ng/mL,16.2 ng/mL and 122 ng/mL and 9.97 ng/mL and 9.75 ng/mL and 10.8 ng/mL and 1.12 ng/mL and 16.0 ng/mL and 7.09 ng/mL,100,96,100,78,72,83,79,100,57,100,98,100,86,100,100,70,remaining binding at 10 µM (NEK11): 86%; remaining binding at 10 µM (NEK2): 98%; remaining binding at 10 µM (NEK6): 91%; remaining binding at 10 µM (PIP5K1C): 75%; remaining activity at 10 µM (PKNB M. tuberculosis): 74%; remaining binding at 10 µM (PLK4): 69%; remaining binding at 10 µM (PRKD2): 90%; remaining binding at 10 µM (PRKG2): 82%; remaining binding at 10 µM [3]: 100%; remaining binding at 10 µM (SIK): 100%; remaining binding at 10 µM (TLK1): 96%; remaining binding at 10 µM (VEGFR2): 94%; remaining binding at 10 µM (WNK3): 89%; remaining binding at 10 µM (YANK3): 97%; remaining binding at 10 µM (ZAP70): 78%
"CNc1c(C(N)=O)c2ccccn2c1C(=O)c1ccc(F)cc1 [Compound A, 2-methyl-amino-3-[(4-fluorophenyl)carbonyl]indolizine-1-carboxamide]",BLQ (2×) and 12.6 ng/mL and 9.67 ng/mL and 14.9 ng/mL and 8.92 ng/mL and 2.51 ng/mL and 17.7 ng/mL,BLQ (3×) and 8.23 ng/mL and 12.8 ng/mL and 9.33 ng/mL and 10.3 ng/mL,12.6 ng/mL and 207 ng/mL and 203 ng/mL and 274 ng/mL and 188 ng/mL and 16.9 ng/mL and 319 ng/mL and 25.6 ng/mL,BLQ (2×) and 12.7 ng/mL and 10.5 ng/mL and 14.1 ng/mL and 12.9 ng/mL and 19.0 ng/mL and 2.66 ng/mL,100,86,85,57,99,85,93,85,11,98,72,96,59,100,100,58,"concentration at 8 weeks ([1]; brain, SEM 1.05, read-out: concentration in the brain (Mean ±SEM)): ~11.1 ng/mL; concentration at 8 weeks ([1]; hippocampus, hippocampus at sacrifice, LC-MS/MS, one value per mouse, read-out: concentration in hippocampus): 10.5 ng/mL; remaining binding at 10 µM (NEK11): 88%; remaining binding at 10 µM (NEK2): 92%; remaining binding at 10 µM (NEK6): 76%; remaining binding at 10 µM (PIP5K1C): 67%; remaining activity at 10 µM (PKNB M. tuberculosis): 86%; remaining binding at 10 µM (PLK4): 70%; remaining binding at 10 µM (PRKD2): 68%; remaining binding at 10 µM (PRKG2): 76%; remaining binding at 10 µM [3]: 68%; remaining binding at 10 µM (SIK): 83%; remaining binding at 10 µM (TLK1): 87%; remaining binding at 10 µM (VEGFR2): 79%; remaining binding at 10 µM (WNK3): 75%; remaining binding at 10 µM (YANK3): 100%; remaining binding at 10 µM (ZAP70): 93%"

# Source: patent US10815230B2, “Casein kinase 1 delta inhibitor” (ELECTROPHORETICS LIMITED, priority 2015, dated 2020)
